Test results reported in publication PMC8296573, “Synthesis and Biological Evaluation of Fingolimod Derivatives as Antibacterial Agents” (ACS Omega, 2021).
Where two headings read alike, the source gives them in different places.

Tests used:
S. aureus ATCC 25923 [1] = test: Antibacterial activity, pre-exposure (planktonic cells and biofilm formation); format: cell-based, Staphylococcus aureus; conditions: for Average inhibition %, biofilms biomass / Average inhibition %, biofilms viability / Average inhibition %, planktonic cells turbidity / Average inhibition %, planktonic cells viability: ± SD
Procedure, shortened: (§1)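 Pre-exposure format: compound and bacterial culture co-incubated 18 h, 37 °C, aerobic, 220 rpm. Planktonic: turbidity (OD) plus resazurin viability, 20 μM final. Biofilm: PBS wash, 20 μM resazurin, then ethanol fixation and crystal violet staining, A595.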

P. aeruginosa ATCC 9027 = test: Antibacterial activity, pre-exposure; format: cell-based, Pseudomonas aeruginosa; conditions: for Average inhibition %, biofilms biomass / Average inhibition %, biofilms viability / Average inhibition %, planktonic cells turbidity / Average inhibition %, planktonic cells viability: P. aeruginosa ATCC 9027, pre-exposure, ± SD
Procedure, shortened: as §1

S. aureus ATCC 12598 = test: Antibacterial activity, pre-exposure; format: cell-based, Staphylococcus aureus; conditions: for Average inhibition %, biofilms biomass / Average inhibition %, biofilms viability / Average inhibition %, planktonic cells turbidity / Average inhibition %, planktonic cells viability: S. aureus ATCC 12598, pre-exposure, ± SD
Procedure: The antimicrobial activity was assessed in a similar way for the initial screening and the dose–response evaluation against different bacterial strains. With the exception of the post-exposure experiment, the compounds were added to the wells along with the bacteria to test the ability of compounds to prevent bacterial growth and biofilm formation (pre-exposure). The compounds were diluted in DMSO and plated directly in 96-well plates before adding the bacterial culture, and plates were incubated for 18 h under aerobic conditions at 37 °C with shaking (220 rpm). The antibacterial activity of the compounds was assessed on planktonic cells and biofilms separately using two different measurements for each: optical density (turbidity) and resazurin reduction (viability) on planktonic cells and resazurin followed by a crystal violet staining assay (total biomass) on biofilms, as described in the following sections.
The resazurin staining was performed according to the protocol previously optimized with a few modifications.[46] Briefly, the planktonic solution was first transferred into a new 96-well plate and the OD of the planktonic solution was measured using a Varioskan LUX Multimode microplate reader (Thermo Scientific, Vantaa, Finland). Then, 10 μL of a 400 μM resazurin (R7017, Sigma-Aldrich, St. Louis, MO) diluted in phosphate-buffered saline (PBS) (Thermo Fisher Scientific, MA) was added to the wells (for a final resazurin concentration of 20 μM). The plate was incubated in the dark with shaking (220 rpm) for about 3–10 min at room temperature with S. aureus and A. baumannii (until the bacteria controls turned pink) or for 20 min at 37 °C with P. aeruginosa. Fluorescence was measured at λex = 560 nm and λem = 590 nm using the top optics of the Varioskan LUX Multimode microplate reader. The planktonic plate was then discarded. The original challenge plate containing the biofilms was washed once with PBS, and 200 μL of a 20 μM resazurin solution was added to the wells. The plate was incubated in the dark at 37 °C with shaking (220 rpm) for 30 min with S. aureus, 60 min with A. baumannii, and 90 min with P. aeruginosa. Fluorescence was measured as described for the planktonic solution. The biofilms were next treated with crystal violet staining.
After removing the resazurin solution from the plate, biofilms were fixed with ethanol 100% for 15 min at room temperature. Ethanol was then removed, and the biofilms were left to air-dry completely at RT. Crystal violet, diluted to 1:100 in deionized water from the 2.3% commercial solution (HT90132, Sigma-Aldrich, St. Louis, MO), was added to the wells and, after a 5 min incubation with the dye, the biofilms were washed twice with deionized water and left to air-dry for about 10 min. The dye was solubilized in ethanol 100% for 1 h, and absorbance was measured at 595 nm using a Multiskan Sky microplate spectrophotometer (Thermo Scientific, Vantaa, Finland).

A. baumannii NCTC 13423 = test: Antibacterial activity, pre-exposure; format: cell-based, Acinetobacter baumannii; conditions: for Average inhibition %, biofilms biomass / Average inhibition %, biofilms viability / Average inhibition %, planktonic cells turbidity / Average inhibition %, planktonic cells viability: A. baumannii NCTC 13423, pre-exposure, ± SD
Procedure, shortened: as §1

S. aureus ATCC 25923 [2] = test: Antibacterial activity, post-exposure on preformed 18-h-old biofilms; format: cell-based, Staphylococcus aureus; conditions: ± SD
Procedure, shortened: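 Compounds were applied to preformed 18-h biofilms after medium change and left 24 h. Read-outs: planktonic OD plus resazurin fluorescence (20 μM), biofilm metabolic activity by resazurin 30 min at 37 °C, then biomass by crystal violet absorbance at 595 nm after ethanol fixation.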

2-Amino-2-(4-decylbenzyl)propane-1,3-diol [Compound 45]
MIC S. aureus ATCC 25923 (S. aureus ATCC 25923 [1]; lowest concentration with no visible growth (>90% inhibition of turbidity and viability of planktonic cells), 18 h): 5 to 10 µM | MIC (S. aureus ATCC 25923 [1]; lowest concentration with no visible growth (>90% inhibition of turbidity and viability of planktonic cells), 18 h, read-out: MIC S. aureus ATCC 25923): 10 µM | Average inhibition %, biofilms biomass (S. aureus ATCC 25923 [1]; pre-exposure, 5 µM): 45.3 ± 46.5% | Average inhibition %, biofilms viability (S. aureus ATCC 25923 [1]; pre-exposure, 5 µM): 45.4 ± 46.1% | Average inhibition %, planktonic cells turbidity (S. aureus ATCC 25923 [1]; pre-exposure, 5 µM): 45.7 ± 46.9% | Average inhibition %, planktonic cells viability (S. aureus ATCC 25923 [1]; pre-exposure, 5 µM): 41.5 ± 50.3% | Average inhibition %, biofilms biomass (S. aureus ATCC 25923 [1]; pre-exposure, 10 µM): 92.5 ± 4.8% | Average inhibition %, biofilms viability (S. aureus ATCC 25923 [1]; pre-exposure, 10 µM): 98.9 ± 0.5% | Average inhibition %, planktonic cells turbidity (S. aureus ATCC 25923 [1]; pre-exposure, 10 µM): 99 ± 0.7% | Average inhibition %, planktonic cells viability (S. aureus ATCC 25923 [1]; pre-exposure, 10 µM): 99.8 ± 0.1% | Average inhibition %, biofilms biomass (S. aureus ATCC 25923 [1]; pre-exposure, 15 µM): 91.8 ± 4.7% | Average inhibition %, biofilms viability (S. aureus ATCC 25923 [1]; pre-exposure, 15 µM): 99.7 ± 0.1% | Average inhibition %, planktonic cells turbidity (S. aureus ATCC 25923 [1]; pre-exposure, 15 µM): 98.9 ± 0.7% | Average inhibition %, planktonic cells viability (S. aureus ATCC 25923 [1]; pre-exposure, 15 µM): 99.7 ± 0.1% | Average inhibition %, biofilms biomass (S. aureus ATCC 25923 [1]; pre-exposure, 25 µM): 91.8 ± 5.6% | Average inhibition %, biofilms viability (S. aureus ATCC 25923 [1]; pre-exposure, 25 µM): 99.7 ± 0% | Average inhibition %, planktonic cells turbidity (S. aureus ATCC 25923 [1]; pre-exposure, 25 µM): 98.6 ± 0.6% | Average inhibition %, planktonic cells viability (S. aureus ATCC 25923 [1]; pre-exposure, 25 µM): 99.8 ± 0.2% | MIC (S. aureus ATCC 25923 [1]; pre-exposure, lowest value among replicates, read-out: MIC S. aureus ATCC 25923, for some replicates): 5 µM | MIC (S. aureus) (S. aureus ATCC 25923 [1]; supplementary molecular formula strings sheet): 5 to 10 µM | Average inhibition %, biofilms biomass (P. aeruginosa ATCC 9027; 50 µM): 5 ± 3.4% | Average inhibition %, biofilms viability (P. aeruginosa ATCC 9027; 50 µM): 8.1 ± 10.9% | Average inhibition %, planktonic cells turbidity (P. aeruginosa ATCC 9027; 50 µM): 31.3 ± 5.3% | Average inhibition %, planktonic cells viability (P. aeruginosa ATCC 9027; 50 µM): 24.4 ± 2.7% | Average inhibition %, biofilms biomass (P. aeruginosa ATCC 9027; 100 µM): 2.5 ± 4.4% | Average inhibition %, biofilms viability (P. aeruginosa ATCC 9027; 100 µM): 4 ± 6.6% | Average inhibition %, planktonic cells turbidity (P. aeruginosa ATCC 9027; 100 µM): 41.8 ± 6% | Average inhibition %, planktonic cells viability (P. aeruginosa ATCC 9027; 100 µM): 30 ± 7.6% | Average inhibition %, biofilms biomass (P. aeruginosa ATCC 9027; 150 µM): 1.6 ± 2.8% | Average inhibition %, biofilms viability (P. aeruginosa ATCC 9027; 150 µM): 1.9 ± 2.9% | Average inhibition %, planktonic cells turbidity (P. aeruginosa ATCC 9027; 150 µM): 39.3 ± 3.3% | Average inhibition %, planktonic cells viability (P. aeruginosa ATCC 9027; 150 µM): 36.5 ± 11.5% | Average inhibition %, biofilms biomass (P. aeruginosa ATCC 9027; 200 µM): 0 ± 0% | Average inhibition %, biofilms viability (P. aeruginosa ATCC 9027; 200 µM): 0 ± 0% | Average inhibition %, planktonic cells turbidity (P. aeruginosa ATCC 9027; 200 µM): 40.7 ± 6.2% | Average inhibition %, planktonic cells viability (P. aeruginosa ATCC 9027; 200 µM): 22.9 ± 11.2% | MIC P. aeruginosa ATCC 9027 (P. aeruginosa ATCC 9027; pre-exposure, Inactive = no activity up to 200 μM, > = some inhibition but no MIC reached): Inactive | Average inhibition %, biofilms biomass (S. aureus ATCC 12598; 5 µM): 75.4 ± 28.1% | Average inhibition %, biofilms viability (S. aureus ATCC 12598; 5 µM): 83.6 ± 38.2% | Average inhibition %, planktonic cells turbidity (S. aureus ATCC 12598; 5 µM): 89.3 ± 24.1% | Average inhibition %, planktonic cells viability (S. aureus ATCC 12598; 5 µM): 83.4 ± 39.6% | Average inhibition %, biofilms biomass (S. aureus ATCC 12598; 10 µM): 95.3 ± 0.4% | Average inhibition %, biofilms viability (S. aureus ATCC 12598; 10 µM): 99.6 ± 0.1% | Average inhibition %, planktonic cells turbidity (S. aureus ATCC 12598; 10 µM): 99.4 ± 0% | Average inhibition %, planktonic cells viability (S. aureus ATCC 12598; 10 µM): 99.8 ± 0% | Average inhibition %, biofilms biomass (S. aureus ATCC 12598; 15 µM): 94.4 ± 0.3% | Average inhibition %, biofilms viability (S. aureus ATCC 12598; 15 µM): 99.6 ± 0.1% | Average inhibition %, planktonic cells turbidity (S. aureus ATCC 12598; 15 µM): 99.1 ± 0% | Average inhibition %, planktonic cells viability (S. aureus ATCC 12598; 15 µM): 99.8 ± 0% | Average inhibition %, biofilms biomass (S. aureus ATCC 12598; 25 µM): 94.9 ± 1% | Average inhibition %, biofilms viability (S. aureus ATCC 12598; 25 µM): 99.6 ± 0.1% | Average inhibition %, planktonic cells turbidity (S. aureus ATCC 12598; 25 µM): 98.3 ± 0.2% | Average inhibition %, planktonic cells viability (S. aureus ATCC 12598; 25 µM): 99.8 ± 0.1% | MIC S. aureus ATCC 12598 (S. aureus ATCC 12598; pre-exposure, 18 h): 5 to 10 µM | Average inhibition %, biofilms biomass (A. baumannii NCTC 13423; 10 µM): 0 ± 0% | Average inhibition %, biofilms viability (A. baumannii NCTC 13423; 10 µM): 2.1 ± 3.6% | Average inhibition %, planktonic cells turbidity (A. baumannii NCTC 13423; 10 µM): 0 ± 0% | Average inhibition %, planktonic cells viability (A. baumannii NCTC 13423; 10 µM): 4.8 ± 2.9% | Average inhibition %, biofilms biomass (A. baumannii NCTC 13423; 15 µM): 1 ± 1.8% | Average inhibition %, biofilms viability (A. baumannii NCTC 13423; 15 µM): 0.5 ± 0.8% | Average inhibition %, planktonic cells turbidity (A. baumannii NCTC 13423; 15 µM): 0 ± 0% | Average inhibition %, planktonic cells viability (A. baumannii NCTC 13423; 15 µM): 2.8 ± 3.8% | Average inhibition %, biofilms biomass (A. baumannii NCTC 13423; 25 µM): 0 ± 0% | Average inhibition %, biofilms viability (A. baumannii NCTC 13423; 25 µM): 2.7 ± 4% | Average inhibition %, planktonic cells turbidity (A. baumannii NCTC 13423; 25 µM): 0 ± 0% | Average inhibition %, planktonic cells viability (A. baumannii NCTC 13423; 25 µM): 0 ± 0% | Average inhibition %, biofilms biomass (A. baumannii NCTC 13423; 50 µM): 0.7 ± 1.3% | Average inhibition %, biofilms viability (A. baumannii NCTC 13423; 50 µM): 6.5 ± 7.4% | Average inhibition %, planktonic cells turbidity (A. baumannii NCTC 13423; 50 µM): 0 ± 0% | Average inhibition %, planktonic cells viability (A. baumannii NCTC 13423; 50 µM): 0 ± 0% | MIC A. baumannii NCTC 13423 (A. baumannii NCTC 13423; pre-exposure, Inactive = no activity up to 50 μM, > = some inhibition but no MIC reached): Inactive | Average inhibition %, biofilms biomass (S. aureus ATCC 25923 [2]; 25 µM): 36.9 ± 3% | Average inhibition %, biofilms viability (S. aureus ATCC 25923 [2]; 25 µM): 15.5 ± 10.9% | Average inhibition %, planktonic cells turbidity (S. aureus ATCC 25923 [2]; 25 µM): 9.2 ± 8.6% | Average inhibition %, planktonic cells viability (S. aureus ATCC 25923 [2]; 25 µM): 1 ± 1.7% | Average inhibition %, biofilms biomass (S. aureus ATCC 25923 [2]; 50 µM): 39.5 ± 9% | Average inhibition %, biofilms viability (S. aureus ATCC 25923 [2]; 50 µM): 25.2 ± 5.5% | Average inhibition %, planktonic cells turbidity (S. aureus ATCC 25923 [2]; 50 µM): 28.1 ± 16.3% | Average inhibition %, planktonic cells viability (S. aureus ATCC 25923 [2]; 50 µM): 22.5 ± 18.5% | Average inhibition %, biofilms biomass (S. aureus ATCC 25923 [2]; 100 µM): 51.3 ± 5.8% | Average inhibition %, biofilms viability (S. aureus ATCC 25923 [2]; 100 µM): 23.1 ± 10.2% | Average inhibition %, planktonic cells turbidity (S. aureus ATCC 25923 [2]; 100 µM): 45.7 ± 12.8% | Average inhibition %, planktonic cells viability (S. aureus ATCC 25923 [2]; 100 µM): 59.7 ± 16.4% | Average inhibition %, biofilms biomass (S. aureus ATCC 25923 [2]; 200 µM): 47.7 ± 12.7% | Average inhibition %, biofilms viability (S. aureus ATCC 25923 [2]; 200 µM): 17.1 ± 16.5% | Average inhibition %, planktonic cells turbidity (S. aureus ATCC 25923 [2]; 200 µM): 53.9 ± 18.7% | Average inhibition %, planktonic cells viability (S. aureus ATCC 25923 [2]; 200 µM): 70.7 ± 12.5%
